Molecules are shown by their SMILES.

The target in the experiment is T1, HDM2 (Homo sapiens, UniProt Q00987).
T1 construct: Recombinant HDM2 (1.5 μg per well) in TBS-BSA buffer
T1 sequence (Q00987 whole entry): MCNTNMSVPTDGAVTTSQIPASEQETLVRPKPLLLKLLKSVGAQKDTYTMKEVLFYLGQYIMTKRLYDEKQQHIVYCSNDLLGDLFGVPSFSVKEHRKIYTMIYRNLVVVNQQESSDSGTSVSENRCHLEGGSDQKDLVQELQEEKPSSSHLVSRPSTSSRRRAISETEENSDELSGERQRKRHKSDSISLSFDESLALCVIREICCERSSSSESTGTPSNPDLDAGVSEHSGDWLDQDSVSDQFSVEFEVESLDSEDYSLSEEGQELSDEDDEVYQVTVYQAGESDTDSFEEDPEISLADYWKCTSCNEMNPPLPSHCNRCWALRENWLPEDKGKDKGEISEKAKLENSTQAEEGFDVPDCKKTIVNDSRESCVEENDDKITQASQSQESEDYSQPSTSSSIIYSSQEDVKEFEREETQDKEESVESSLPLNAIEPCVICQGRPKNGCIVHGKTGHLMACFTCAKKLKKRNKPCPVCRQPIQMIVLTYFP
The experiment in a line: Fluorescence polarisation competitive HDM2 binding assay. Particulars: fluorescence polarisation format; Table 1; read-out: IC50 In vitro competitive HDM2 binding assay. The protocol: This was carried out using a 96-well microtiter plate (Costar) format. Recombinant HDM2 (1.5 μg per well) in TBS-BSA buffer (50 mM Tris pH 7.4, 150 mM NaCl, and 0.1% BSA) was incubated for 5 min at room temperature in the presence of serially diluted test compound (in TBS-BSA buffer with a final concentration of 5% DMSO). Fluorescently labelled p53-derived peptide (fluorescein-[…]NH2, 0.2 μM) was added to each well and the plate was incubated at room temperature for 45 min. The fluorescence polarisation (excitation 485 nm, emission 520 nm) of the peptide was measured. IC50 values were calculated from dose-response curves.
The fluorescence polarisation competitive HDM2 binding assay described in Example 3 was used. Furthermore, the anti-proliferative potency of the compounds against three human tumour cell lines with different genetic make-up was also determined. […] The cell lines used were as follows: AGS, gastric adenocarcinoma, wild-type p53; H1299, large cell lung carcinoma, p53 null, low HDM2; SJSA-1, primitive multipotential bone sarcoma, wild-type p53, overexpressed HDM2.
For orientation: IC50 means the concentration that gives 50% inhibition. Consider `O=[N+]([O-])c1cc(S(=O)(=O)Nc2cccc(C(F)(F)F)c2)sc1Cl` [Compound 1, 5-Chloro-4-nitrothiophene-2-sulfonic acid (3-trifluoromethylphenyl)amide], for which the half-maximal inhibitory concentration (IC50) was 409 ± 84 µM.
The same measure for `O=S(=O)(Nc1cc(C(F)(F)F)cc(C(F)(F)F)c1)c1cc(Br)c(Br)s1` [Compound 8, 4,5-Dibromothiophene-2-sulfonic acid (3,5-bis-trifluoromethylphenyl)amide]: 407 µM; for `O=S(=O)(Nc1ccc(C(F)(F)F)cc1)c1ccc(Cl)s1` [Compound 9, 5-Chlorothiophene-2-sulfonic acid (4-trifluoromethylphenyl)amide]: 102 ± 13 µM; for `O=S(=O)(Nc1ccc(Cl)cc1)c1ccc(Cl)s1` [Compound 10, 5-Chlorothiophene-2-sulfonic acid (4-chlorophenyl)amide]: 320 µM.
Regarding `O=S(=O)(Nc1cc(C(F)(F)F)cc(C(F)(F)F)c1)c1ccc(Cl)s1` [Compound 11, 5-Chlorothiophene-2-sulfonic acid (3,5-bis-trifluoromethylphenyl)amide], the IC50 was determined as 435 ± 76 µM.
As for `CSc1ncc(-c2ccc(S(=O)(=O)Nc3cc(Cl)cc(Cl)c3)s2)cn1` [Compound 12, 5-(2-Methylsulfanyl-pyrimidin-5-yl)-thiophene-2-sulfonic acid (3,5-dichlorophenyl)-amide], the IC50 stood at 374 ± 12 µM.
The figure for `O=S(=O)(Nc1ccc(C(F)(F)F)cc1)c1ccc(-c2ncco2)cc1` [Compound 13, 4-Oxazol-2-yl-N-(4-trifluoromethylphenyl)benzenesulfonamide] is 494 µM; for `O=S(=O)(Nc1cc(C(F)(F)F)cc(C(F)(F)F)c1)c1ccc(-c2ncco2)cc1` [Compound 14, N-(3,5-Bis-trifluoromethylphenyl)-4-oxazol-2-yl-benzenesulfonamide] it is 448 ± 55 µM; for `O=S(=O)(Nc1ccc(C(F)(F)F)cc1)c1cc(Br)c(Cl)s1` [Compound 15, 4-Bromo-5-chlorothiophene-2-sulfonic acid (4-trifluoromethylphenyl)amide] it is 218 ± 15 µM.
The figure for `O=S(=O)(Nc1ccc(Cl)cc1)c1ccc(Br)s1` [Compound 16, 5-Bromothiophene-2-sulfonic acid (4-chlorophenyl)amide] is 290 ± 54 µM; for `O=S(=O)(Nc1cc(Cl)cc(Cl)c1)c1ccc(Br)s1` [Compound 17, 5-Bromothiophene-2-sulfonic acid (3,5-dichlorophenyl)amide] it is 291 µM; for `O=S(=O)(Nc1cc(C(F)(F)F)cc(C(F)(F)F)c1)c1ccc(Br)s1` [Compound 18, 5-Bromothiophene-2-sulfonic acid (3,5-bis-trifluoromethylphenyl)amide] it is 172 ± 21 µM.
The same measure for `O=[N+]([O-])c1cccc(S(=O)(=O)Nc2ccc(Cl)cc2)c1` [Compound 19, N-(4-Chlorophenyl)-3-nitrobenzenesulfonamide]: 295 ± 45 µM; for `O=[N+]([O-])c1cccc(S(=O)(=O)Nc2ccc(C(F)(F)F)cc2)c1` [Compound 20, 3-Nitro-N-(4-trifluoromethylphenyl)benzenesulfonamide]: 482 ± 26 µM; for `O=[N+]([O-])c1cccc(S(=O)(=O)Nc2cc(C(F)(F)F)cc(C(F)(F)F)c2)c1` [Compound 21, N-(3,5-Bis-trifluoromethylphenyl)-3-nitrobenzenesulfonamide]: 209 ± 38 µM.
As for `O=[N+]([O-])c1cccc(S(=O)(=O)Nc2ccc(Cl)cc2Cl)c1` [Compound 22, N-(2,4-Dichlorophenyl)-3-nitrobenzenesulfonamide], the IC50 was determined as 441 ± 69 µM.
The figure for `O=S(=O)(Nc1ccc(C(F)(F)F)cc1)c1ccc(S(=O)(=O)c2ccccc2)s1` [Compound 23, 5-Benzenesulfonylthiophene-2-sulfonic acid (4-trifluoromethylphenyl)-amide] is 146 ± 5 µM; for `O=S(=O)(Nc1ccc(Cl)cc1)c1ccc(S(=O)(=O)c2ccccc2)s1` [Compound 24, 5-Benzenesulfonylthiophene-2-sulfonic acid (4-chlorophenyl)amide] it is 243 ± 59 µM; for `O=S(=O)(Nc1cc(Cl)cc(Cl)c1)c1ccc(S(=O)(=O)c2ccccc2)s1` [Compound 25, 5-Benzenesulfonylthiophene-2-sulfonic acid (3,5-dichlorophenyl)amide] it is 288 ± 39 µM.
With `O=S(=O)(Nc1ccc(Cl)c(Cl)c1)c1ccc(Cl)s1` [Compound 26, 5-Chlorothiophene-2-sulfonic acid (3,4-dichlorophenyl)amide], the concentration for half-maximal inhibition (IC50) came to 295 ± 36 µM.
The figure for `O=S(=O)(Nc1cccc(C(F)(F)F)c1)c1cc(Br)c(Br)s1` [Compound 27, 4,5-Dibromothiophene-2-sulfonic acid (3-trifluoromethylphenyl)amide] is 199 ± 28 µM; for `O=S(=O)(Nc1ccc(Cl)c(Cl)c1)c1cc(Br)c(Br)s1` [Compound 28, 4,5-Dibromothiophene-2-sulfonic acid (3,4-dichlorophenyl)amide] it is 160 ± 31 µM.
Consider `O=[N+]([O-])c1cc(S(=O)(=O)Nc2cc(C(F)(F)F)cc(C(F)(F)F)c2)ccc1Cl` [Compound 29, N-(3,5-Bis-trifluoromethylphenyl)-4-chloro-3-nitrobenzenesulfonamide], for which the IC50 turned out to be 129 ± 22 µM.
With `O=[N+]([O-])c1cc(S(=O)(=O)Nc2ccc(Cl)c(Cl)c2)ccc1Cl` [Compound 30, 4-Chloro-N-(3,4-dichlorophenyl)-3-nitrobenzenesulfonamide], the IC50 turned out to be 427 ± 3 µM.
For `Cn1ncc(-c2ccc(S(=O)(=O)Nc3ccc(C(F)(F)F)cc3)s2)c1C(F)(F)F` [Compound 31, 5-(1-Methyl-5-trifluoromethyl-1H-pyrazol-4-yl)-thiophene-2-sulfonic acid (4-trifluoromethylphenyl)-amide], the IC50 was found to be 350 ± 10 µM.
As for `O=S(=O)(Nc1ccc(F)cc1)c1cc(S(=O)(=O)Nc2ccc(F)cc2)c(Cl)s1` [Compound 32, 5-Chlorothiophene-2,4-disulfonic acid bis-[(4-fluorophenyl)-amide]], the IC50 was 408 ± 31 µM.
Regarding `Cc1ccc(S(=O)(=O)Nc2ccc(C(F)(F)F)cc2)cc1[N+](=O)[O-]` [Compound 34, 4-Methyl-3-nitro-N-(4-trifluoromethylphenyl)benzenesulfonamide], the IC50 stood at 295 ± 23 µM.
The same measure for `Cc1ccc(S(=O)(=O)Nc2ccc(C(F)(F)F)cc2)cc1N` [Compound 36, 3-Amino-4-methyl-N-(4-trifluoromethyl-phenyl)benzenesulfonamide]: 429 µM; for `Cc1ccc(S(=O)(=O)Nc2ccc(Cl)cc2)cc1[N+](=O)[O-]` [Compound 37, N-(4-Chlorophenyl)-4-methyl-3-nitrobenzenesulfonamide]: 294 ± 52 µM.
Consider `CC(C)CN(c1ccc(Cl)cc1)S(=O)(=O)c1cc([N+](=O)[O-])c(Cl)s1` [Compound 58, 5-Chloro-4-nitro-thiophene-2-sulfonic acid (4-chloro-phenyl)-isobutyl-amide], for which the IC50 worked out at 249 ± 30 µM.
The figure for `O=[N+]([O-])c1cc(S(=O)(=O)Nc2nc3ccccc3[nH]2)sc1Cl` [Compound 59, 5-Chloro-4-nitro-thiophene-2-sulfonic acid (1H-benzo-imidazol-2-yl)-amide] is 40 ± 1 µM; for `O=[N+]([O-])c1cc(S(=O)(=O)Nc2ccccc2)sc1Cl` [Compound 62, 5-Chloro-4-nitro-thiophene-2-sulfonic acid phenylamide] it is 67 ± 1 µM.
Regarding `O=S(=O)(Nc1ccc(Cl)cc1)c1cc(S(=O)(=O)Nc2ccc(Cl)cc2)c(Cl)s1` [Compound 70, 5-Chloro-thiophene-2,4-disulfonic acid bis-[(4-chloro-phenyl)-amide]], the half-inhibitory concentration (IC50) stood at 135 ± 19 µM.
Consider `CCc1sc(S(=O)(=O)Nc2ccc(Cl)cc2)cc1[N+](=O)[O-]` [Compound 71, 5-Ethyl-4-nitro-thiophene-2-sulfonic acid (4-chloro-phenyl)-amide], for which the IC50 was 237 ± 35 µM.
In the case of `Cc1sc(S(=O)(=O)Nc2ccc(Cl)cc2)cc1S(=O)(=O)Nc1ccc(Cl)cc1` [Compound 74, 5-Methyl-thiophene-2,4-disulfonic acid bis-[(4-chloro-phenyl)-amide]], the concentration for half-maximal inhibition (IC50) was 123 ± 15 µM.
The figure for `O=[N+]([O-])c1csc(S(=O)(=O)Nc2ccc(C(F)(F)F)cc2)c1` [Compound 76, 4-Nitro-thiophene-2-sulfonic acid (4-trifluoromethyl-phenyl)-amide] is 366 ± 7 µM; for `O=[N+]([O-])c1csc(S(=O)(=O)NCCc2c[nH]c3ccccc23)c1` [Compound 77, 4-Nitro-thiophene-2-sulfonic acid [2-(1H-indol-3-yl)-ethyl]-amide] it is 247 ± 61 µM; for `Cn1nc(-c2ccc(S(=O)(=O)N(Cc3cccc(C(F)(F)F)c3)c3cc(C(F)(F)F)cc(C(F)(F)F)c3)s2)cc1C(F)(F)F` [Compound 78, 5-(1-Methyl-5-tri-fluoromethyl-1H-pyrazol-3-yl)-thiophene-2-sulfonic acid (3,5-bis-tri-fluoromethyl-phenyl)-(3-trifluoro-methyl-benzyl)-amide] it is 315 ± 83 µM.
In the case of `O=[N+]([O-])c1cc(S(=O)(=O)Nc2ccc(Cl)cc2)sc1N1CCOCC1` [Compound 79, 5-Morpholin-4-yl-4-nitro-thiophene-2-sulfonic acid (4-chloro-phenyl)-amide], the 50% inhibitory concentration (IC50) is 419 ± 31 µM.
In the case of `COCCNc1sc(S(=O)(=O)Nc2ccc(Cl)cc2)cc1[N+](=O)[O-]` [Compound 80, 5-(2-Methoxy-ethylamino)-4-nitro-thiophene-2-sulfonic acid (4-chloro-phenyl)-amide], the IC50 turned out to be 154 ± 27 µM.
